The values below come from PMC8950477 (Pharmaceuticals, 2022).

The test system of one data set is K562 cells. As to the kind of experiment: K562 cell viability assay (resazurin). Type of data set: cell-based, human. The note with it: for CC50: Homo sapiens, K562 cells, concentration-response curve.
Data set [1] in a line: WSS-1 cell viability assay (resazurin). Format: cell-based. The note with it: human, WSS-1 cells (renal epithelium, adenovirus 5 transformed), concentration-response curve.
Protocol: The assays were performed on two cell lines, as described below. […] WSS-1 (ATCC® CRL2029 ™): the cells used in this work were a healthy human cell line obtained from the renal epithelium of a fetus and transformed with adenovirus 5 DNA (ATCC: The Global Bioresource Center c). […] WSS-1 cells were cultured in high-glucose DMEM (Vitrocell) according to the provider’s recommendations (ATCC: The Global Bioresource Center c). The media were supplemented with 10% fetal bovine serum (FBS) and 50 μg/mL gentamicin. All cell lines were grown in a cell culture bottle with a 0.22 μm pore membrane filter on the lid, allowing the circulation of CO2. WSS-1 cells grew adherently, while cells of the K562 strain grew in suspension. All strains were maintained at 35 °C, at 5% CO2. In addition, all cell lines were routinely evaluated before freezing for storage in liquid nitrogen in the vapor phase for the detection of mycoplasma.
For the evaluation of the cytotoxic actions of the synthesized compounds, resazurin (Sigma-Aldrich) was used at a concentration of 0.1 mg/mL. The resazurin salt (Alamar Blue®) has a blue, nonfluorescent color and can be reduced to resorufin, which is pink and highly fluorescent. This process is an indicator of cell proliferation and fluorescent/colorimetric cytotoxicity with redox properties.
The first step of this assay consisted of plating the cells, with 5 × 10^4 cells per well. In this experiment, black plates with transparent bottoms and 96 wells (Greiner Bio-One) were used, and after plating, the cells were returned to the incubator for a period of approximately 20 h to allow growth and cell adhesion. The next step consisted of adding the obtained compounds, followed by incubation for a period of 46 h. Then, resazurin was added at a final concentration per well of 0.01 mg/mL, and immediately, the first fluorescence reading (λex = 560 nm; λex = 590 nm) (zero time) was performed using a FlexStation 3 microplate reader (Molecular Devices). After the first reading, the plate was returned to the incubator, and after two hours, the second reading was performed, completing 48 h of incubation with the compounds. As a negative control, cells treated with DMSO at a concentration of 0.5% instead of the obtained compounds were used. […] Preliminary screening of the compounds was carried out at fixed concentrations (1 and 10 μM) in triplicate. […] It should be noted that each experiment was carried out at least in duplicate. The fluorescence value at time zero (time immediately after the addition of resazurin) in each well was subtracted from the values obtained after two hours of incubation with resazurin. The average value with zero-time subtraction was used as 100% cell viability and was applied to calculate the percentage of cell viability in each well. […]
Data set [2] can be described thus: Solubility observed during concentration-response curve. Format: physicochemical. The note with it: in the cell assay concentration-response curve. On the procedure: Subsequently, a concentration-response curve was constructed for compounds 2g and 2h.
[3] abbreviates: 48 h incubation, resazurin, read-out: CC50 K562.
Where [4] appears, read: unit inferred, read-out: CC50 K562 (Figure 5).
[5] abbreviates: WSS-1 cells, unit inferred, read-out: CC50 WSS1 (Figure 5).
[6] abbreviates: WSS-1 healthy cells, 48 h incubation, resazurin, read-out: CC50 WSS-1.

Where two headings read alike, the source gives them in different places.

Protocol for K562 cells: The assays were performed on two cell lines, as described below. […] The K562 strain was grown in RPMI-1640 medium (R8758, Sigma-Aldrich, St. Louis, MO, USA) according to the provider’s recommendations and the literature [27, 28]. […] The media were supplemented with 10% fetal bovine serum (FBS) and 50 μg/mL gentamicin. All cell lines were grown in a cell culture bottle with a 0.22 μm pore membrane filter on the lid, allowing the circulation of CO2. […] All strains were maintained at 35 °C, at 5% CO2.
For the evaluation of the cytotoxic actions of the synthesized compounds, resazurin (Sigma-Aldrich) was used at a concentration of 0.1 mg/mL.
Standardization of this assay was not carried out in this project; thus, the following ideal values were used for the execution of the experiment: quantity of cells of 2 × 10^4 cell/mL, incubation time with the compounds of 48 h, incubation time with resazurin of one hour and DMSO used within the limit of 0.5%. As the cells grew in suspension, a long incubation period for adherence was not necessary. After plating, the cells were incubated for one hour, and then the prepared compounds were added and incubated for 47 h. After this period, resazurin was added at a final concentration per well of 0.01 mg/mL, and the first fluorescence reading (λex = 560 nm; λex = 590 nm) (zero time) was performed immediately using FlexStation 3 microplates (Molecular Devices). After the first reading, the plate was returned to the incubator, and after one hour, the second reading was performed, completing 48 h of incubation with the compounds. The compounds were solubilized in DMSO (Sigma-Aldrich) at concentrations ranging from 16.66 to 50 mM and maintained at −30 °C.
Analyses of the data obtained and graph construction were performed with the aid of GraphPad Prism 6 software (GraphPad Software Inc., San Diego, CA, USA).

`Cc1ccc(Nc2ccc3cccc(Cl)c3n2)cc1Nc1nccc(-c2cccnc2)n1` [2h, N^1-(8-Chloroquinolin-2-yl)-4-methyl-N^3-(4-(pyridin-3-yl)pyrimidin-2-yl)benzene-1,3-diamine] displayed a melting point of 237 to 239 °C. In the data set on K562 cells (setting [3]), the CC50 was 6.2 µM. Also, the CC50 with K562 cells (setting [4]) is 6.25 µM. In addition, the 50% cytotoxic concentration (CC50) at 48 h in data set [1] (setting [5]) turned out to be 4.92 µM. The CC50 at 48 h in data set [1] (setting [6]) turned out to be 4.9 µM. Further, in data set [2], the solubility entry was “low solubility at concentrations above 30 μM”.

In turn, `Cc1ccc(NC(=O)Cn2cc(CCCOc3ccnc4cc(Cl)ccc34)nn2)cc1Nc1nccc(-c2cccnc2)n1` [4b, 2-(4-(3-((7-Chloroquinolin-4-yl)oxy)propyl)-1H-1,2,3-triazol-1-yl)-N-(4-methyl-3-((4-(pyridin-3-yl)pyrimidin-2-yl)amino)phenyl)acetamide] yielded a melting point of 145 to 146 °C.

Molecule `Cc1ccc(NC(=O)Cn2cc(COc3ccnc4cc(Cl)ccc34)nn2)cc1Nc1nccc(-c2cccnc2)n1` [4a, 2-(4-(((7-Chloroquinolin-4-yl)oxy)methyl)-1H-1,2,3-triazol-1-yl)-N-(4-methyl-3-((4-(pyridin-3-yl)pyrimidin-2-yl)amino)phenyl)acetamide] yielded a melting point of 245 to 247 °C.

The molecule `Cc1ccc(-n2cc(COc3ccnc4cc(Cl)ccc34)nn2)cc1Nc1nccc(-c2cccnc2)n1` [3a, N-(5-(4-(((7-Chloroquinolin-4-yl)oxy)methyl)-1H-1,2,3-triazol-1-yl)-2-methylphenyl)-4-(pyridin-3-yl)pyrimidin-2-amine] had a melting point of 187 to 188 °C.

The molecule `Cc1ccc(Nc2ccnc3ccccc23)cc1Nc1nccc(-c2cccnc2)n1` [2g, 4-Methyl-N^3-(4-(pyridin-3-yl)pyrimidin-2-yl)-N^1-(quinolin-4-yl)benzene-1,3-diamine] returned a melting point of 153 to 157 °C. For the same molecule, the CC50 in the data set on K562 cells (setting [3]) was 0.9 µM. Also, the CC50 with K562 cells (setting [4]) amounted to 0.874 µM. The “percentage of cell viability inhibition” value in the data set on K562 cells (K562 screening at 10 µM (Figure 4)) is “higher percentage of cell viability inhibition than IMT and BST”. Moreover, in data set [1] (setting [5]), the CC50 at 48 h is 0.215 µM. Moreover, the CC50 at 48 h in data set [1] (setting [6]) worked out at 0.2 µM.

As to `Cc1ccc(-n2cc(CCCOc3ccnc4cc(Cl)ccc34)nn2)cc1Nc1nccc(-c2cccnc2)n1` [3b, N-(5-(4-(3-((7-Chloroquinolin-4-yl)oxy)propyl)-1H-1,2,3-triazol-1-yl)-2-methylphenyl)-4-(pyridin-3-yl)pyrimidin-2-amine], the melting point was in the range of 107 to 108 °C.

For `Cc1ccc(NC(=O)c2ccc(CN3CCN(C)CC3)cc2)cc1Nc1nccc(-c2cccnc2)n1` [IMT, Imatinib, reference compound], the CC50 with K562 cells (setting [3]) was 0.08 µM.

In turn, `CCOC(=O)c1cnc2ccccc2c1Nc1ccc(C)c(Nc2nccc(-c3cccnc3)n2)c1` [2e, Ethyl 4-((4-methyl-3-((4-(pyridin-3-yl)pyrimidin-2-yl)amino)phenyl)amino)quinoline-3-carboxylate] displayed a melting point of 208 to 211 °C.
